Among the test systems are SF-539 CNS; UACC-62 melanoma; M14 melanoma; EKVX NSCLC; CCRF-CEM leukemia; SN12C renal; OVCAR-4 ovarian; T-47D breast; SW-620 colon; K-562 leukemia.
What all share (assay): DTP human tumour cell line panel, 48 h

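These data come from cells grown in 96-well plates and exposed to compound for 48 hours at five concentrations. Abbreviation: GI50, concentration required for 50% inhibition of growth. TGI: concentration producing complete growth inhibition.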 *1 amine or outer side, *2 acyl side, *3 side chain or, on linkers, in order; H or OH if unused. Where a SMILES comes first, the peptide text is derived from it. Bridges are numbered along the chain shown (N, C = ends). [ ]: non-standard residue; d: D form. The star is where a group is joined. Phe(3,5-F2) = N[C@@H](Cc1cc(F)cc(F)c1)C(=O)O; Pro(4R-Me) = C[C@H]1CN[C@H](C(=O)O)C1; aThr = C[C@H](O)[C@H](N)C(=O)O; Pip = O=C(O)[C@@H]1CCCCN1; X10 = Fc1cc(C2CC2)ccc1N*; CO = O=C([*:1])[*:2] Where only a bound is given, the exact number is not on record here.

For `Cc1cnc(NCCCN(C)C)c2c1[nH]c1ccc3cc(O)ccc3c12`, the TGI – broadly, the concentration at which net growth stops – in the assay on SF-539 CNS stood at 1.64 µM; in the assay with UACC-62 melanoma it was 1.9 µM; in the assay with M14 melanoma it was 2.55 µM; in the assay with EKVX NSCLC, 4.34 µM; in the assay on CCRF-CEM leukemia, 5.88 µM; in the assay on SN12C renal, 1.78 µM. Further, the TGI worked out at 1.19 µM in the assay on OVCAR-4 ovarian, 2.78 µM with T-47D breast, 1.97 µM in the assay on SW-620 colon and 3.68 µM in the assay on K-562 leukemia.
`CCN1CCN(Cc2ccc(NC(=O)c3cccc(C#Cc4cccc5[nH]nc(N)c45)c3)cc2C(F)(F)F)CC1`: the GI50 (commonly the concentration that inhibits growth by half) is 0.205 µM in the assay with SF-539 CNS; 0.509 µM in the assay with UACC-62 melanoma; 0.0622 µM with M14 melanoma; 1.41 µM in the assay with EKVX NSCLC; 0.778 µM in the assay on CCRF-CEM leukemia; 0.584 µM in the assay on SN12C renal. In addition, the 50% growth inhibitory concentration (GI50) with OVCAR-4 ovarian is 0.198 µM; in the assay with T-47D breast it was 0.975 µM; in the assay on SW-620 colon, 0.343 µM. The total growth inhibition concentration (TGI) stood at 0.709 µM with SF-539 CNS; 1.77 µM in the assay with UACC-62 melanoma; 0.547 µM in the assay on M14 melanoma; 2.73 µM in the assay on EKVX NSCLC; 3.96 µM with CCRF-CEM leukemia; 1.93 µM in the assay with SN12C renal. Further, the TGI in the assay on OVCAR-4 ovarian was determined as 1.61 µM; with T-47D breast, 3.39 µM; in the assay on SW-620 colon it was 1.59 µM; in the assay with K-562 leukemia, 0.154 µM.
In the case of `O=[N+]([O-])c1ccc2c(c1)/C(=N/N=C1c3ccccc3Cc3ccccc31)c1cc([N+](=O)[O-])cc([N+](=O)[O-])c1-2`, the concentration for total growth inhibition (TGI) with SF-539 CNS worked out at 7.21 µM; with UACC-62 melanoma, 6.46 µM; in the assay with M14 melanoma it was 6.28 µM; with EKVX NSCLC, 12.3 µM; in the assay on CCRF-CEM leukemia, 5.55 µM; in the assay with SN12C renal, 3.23 µM. The TGI with OVCAR-4 ovarian was determined as 3.13 µM; in the assay on T-47D breast, 3.49 µM; with SW-620 colon, 9.38 µM; in the assay on K-562 leukemia, 9.41 µM.
Regarding `CCOC1Oc2ccccc2C(=O)/C1=C/Nc1ccc(C(C)=O)cc1` (stereo unspecified), the GI50 with SF-539 CNS was 23.9 µM; in the assay with UACC-62 melanoma, 17.5 µM; in the assay with M14 melanoma it was 17.4 µM; in the assay on EKVX NSCLC, 25.4 µM; in the assay with CCRF-CEM leukemia, 19.2 µM; in the assay with SN12C renal, 19.4 µM. Also, the GI50 in the assay on OVCAR-4 ovarian was 49 µM; in the assay with T-47D breast, 62.7 µM; in the assay with SW-620 colon, 26.7 µM; with K-562 leukemia it was 16.1 µM. Besides, the TGI in the assay on SF-539 CNS came out at 56.6 µM; in the assay on UACC-62 melanoma it was 42 µM; in the assay with M14 melanoma it was 35.9 µM; in the assay on EKVX NSCLC it was 93.6 µM; in the assay with CCRF-CEM leukemia, 62.2 µM; in the assay with SN12C renal, 47.8 µM. Besides, the TGI in the assay on OVCAR-4 ovarian is over 100 µM; in the assay with T-47D breast it was over 100 µM; in the assay with SW-620 colon, 72.6 µM; in the assay with K-562 leukemia it was 40.5 µM.
With `COC1/C=C/OC2(C)Oc3c(C)c(O)c4c(O)c(c(/C=N/Nc5ccc([N+](=O)[O-])cc5[N+](=O)[O-])c(O)c4c3C2=O)NC(=O)C(C)=C/C=C/C(C)C(O)C(C)C(O)C(C)C(OC(C)=O)C1C` (stereo unspecified), the GI50 with SF-539 CNS was 1.9 µM; in the assay with UACC-62 melanoma it was 1.37 µM; in the assay with M14 melanoma, 1.61 µM; in the assay on EKVX NSCLC, 4.75 µM; in the assay with CCRF-CEM leukemia it was 1.55 µM; in the assay with SN12C renal it was 10.2 µM. For the same compound, the GI50 in the assay on OVCAR-4 ovarian is 2.9 µM; with T-47D breast it was 2.07 µM; in the assay on SW-620 colon, 1.19 µM. The TGI in the assay with SF-539 CNS is 19.4 µM; in the assay on UACC-62 melanoma, 5.08 µM; in the assay on M14 melanoma it was 5.86 µM; in the assay with EKVX NSCLC it was over 50 µM; in the assay on CCRF-CEM leukemia, over 50 µM; in the assay on SN12C renal, over 50 µM. Besides, the TGI in the assay with OVCAR-4 ovarian was over 50 µM; in the assay with T-47D breast it was over 50 µM; in the assay on SW-620 colon, 2.96 µM.
On to `O=C(Nc1ccc(F)cc1)Nc1ccc(Cl)c([N+](=O)[O-])c1`, for which the GI50 is 3.86 µM in the assay on SF-539 CNS; 3.04 µM in the assay on UACC-62 melanoma; 3.14 µM with M14 melanoma; 2.79 µM in the assay with EKVX NSCLC; 3.3 µM in the assay on CCRF-CEM leukemia; 2.95 µM in the assay on SN12C renal. Also, the GI50 with OVCAR-4 ovarian was 2.78 µM; in the assay with T-47D breast, 2.18 µM; in the assay on SW-620 colon it was 3.45 µM; with K-562 leukemia, 3.2 µM. Also, the TGI in the assay on SF-539 CNS was 14.3 µM; in the assay on UACC-62 melanoma it was 13.2 µM; with M14 melanoma it was 12.3 µM; with EKVX NSCLC, 11 µM; in the assay on CCRF-CEM leukemia it was over 100 µM; with SN12C renal, 11.7 µM. The TGI in the assay on OVCAR-4 ovarian is 14 µM; with T-47D breast it was 9.67 µM; in the assay on SW-620 colon it was 13.9 µM; in the assay with K-562 leukemia, over 100 µM.
`C[C@@H]1C[C@H]2C(=O)O[C@@H](C)[C@H](NC(=O)[C@H](Cc3cc(F)cc(F)c3)NC(=O)Nc3ccc(C4CC4)cc3F)C(=O)N3CCC[C@H]3C(=O)N3CCCC[C@H]3C(=O)N[C@@H](C)C(=O)N2C1` ({X10-CO}-[Phe(3,5-F2)][aThr]P[Pip]A[Pro(4R-Me)]; ester 2-C): the GI50 in the assay on SF-539 CNS is 0.0752 µM; with UACC-62 melanoma it was 0.0512 µM; in the assay on M14 melanoma it was 0.0436 µM; with EKVX NSCLC, 0.0613 µM; in the assay with CCRF-CEM leukemia, 0.0522 µM; with SN12C renal, 0.0401 µM. Moreover, the GI50 was 0.033 µM in the assay on OVCAR-4 ovarian, 0.0448 µM in the assay with T-47D breast, 0.0534 µM with SW-620 colon and 0.0346 µM with K-562 leukemia. Further, the TGI in the assay with SF-539 CNS is 3.56 µM; with UACC-62 melanoma, 4.37 µM; with M14 melanoma, 2.41 µM; with EKVX NSCLC, over 95.6 µM; in the assay with CCRF-CEM leukemia it was over 100 µM; in the assay on SN12C renal, 42.7 µM. In addition, the total growth inhibition concentration (TGI) in the assay on OVCAR-4 ovarian was 3.84 µM; with T-47D breast, over 22.1 µM; with SW-620 colon, over 100 µM; in the assay on K-562 leukemia, over 52.3 µM.
As for `CCN(CC)N=Nc1c(C(N)=O)n[nH]c1C`, the TGI was over 100 µM in the assay with SF-539 CNS; over 100 µM in the assay on UACC-62 melanoma; over 100 µM in the assay with M14 melanoma; over 100 µM in the assay with EKVX NSCLC; 54.5 µM in the assay on CCRF-CEM leukemia; over 100 µM in the assay with SN12C renal. Besides, the TGI with OVCAR-4 ovarian, in the assay on T-47D breast and in the assay with SW-620 colon was over 100 µM each time.

The record behind these values is PubChem BioAssay (NCI).
